This passage reports IC50 results from patent US20190071416A1, “COMPOUNDS FOR TREATMENT OF CANCER AND EPIGENETICS” (Agency For Science, Technology and Research, priority 2015, published 2019).

The target of this assay is T1, SMYD3 (Homo sapiens, UniProt Q9H7B4).
T1 sequence (Q9H7B4 1-428): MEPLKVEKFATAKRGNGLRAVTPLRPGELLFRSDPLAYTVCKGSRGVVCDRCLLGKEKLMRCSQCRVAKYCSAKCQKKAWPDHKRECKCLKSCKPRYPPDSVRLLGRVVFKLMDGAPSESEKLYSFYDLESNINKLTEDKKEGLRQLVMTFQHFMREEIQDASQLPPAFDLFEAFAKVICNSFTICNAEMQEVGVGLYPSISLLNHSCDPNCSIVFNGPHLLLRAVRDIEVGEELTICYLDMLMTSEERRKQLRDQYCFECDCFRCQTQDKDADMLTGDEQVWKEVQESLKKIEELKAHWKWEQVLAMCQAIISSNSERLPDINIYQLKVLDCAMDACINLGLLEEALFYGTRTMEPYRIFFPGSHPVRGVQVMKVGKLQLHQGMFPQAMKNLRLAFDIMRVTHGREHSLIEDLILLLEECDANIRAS
Nature of the assay: SMYD3 biochemical assay (MTase-Glo, MAP3K2 peptide substrate). Particulars: Table 3; MTase assay, MAP3K2 peptide substrate; read-out: IC50. The gist of the method:
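Luminescent readout of SAH production (coupled SAH→ATP conversion, MTase-Glo) after SMYD3 reacted 30 min at room temperature with 1.0 µM SAM and 10 µM MAP3K2 peptide, both final. Non-linear regression gave IC50 values.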
In the case of `CCCOC(=O)N1CCN(C(=O)c2ccc3c(Cl)cc(-c4ccc(CN(C)C)cc4)nc3c2)C[C@H]1C` [B098, Propyl (R)-4-(4-chloro-2-(4-((dimethylamino)methyl)phenyl)quinoline-7-carbonyl)-2-methylpiperazine-1-carboxylate], the IC50 is 130 nM.
Then `CCCOC(=O)N1CCN(C(=O)c2ccc3c(Cl)cc(-c4ccc(OC)c(C)c4)nc3c2)CC1` [B099, Propyl 4-(4-chloro-2-(4-methoxy-3-methylphenyl)quinoline-7-carbonyl)piperazine-1-carboxylate], with 350 nM; and `CCCOC(=O)N1CCN(C(=O)c2ccc3c(Cl)cc(-c4ccc(OC)c(CO)c4)nc3c2)CC1` [B100, Propyl 4-(4-chloro-2-(3-(hydroxymethyl)-4-methoxyphenyl)quinoline-7-carbonyl)piperazine-1-carboxylate], with 110 nM.
With `CCCOC(=O)N1CCN(C(=O)c2ccc3c(Cl)cc(-c4ccc(C#N)c(C)c4)nc3c2)CC1` [B101, Propyl 4-(4-chloro-2-(4-cyano-3-methylphenyl)quinoline-7-carbonyl)piperazine-1-carboxylate] the figure was 1800 nM; with `CCCOC(=O)N1CCN(C(=O)c2ccc3c(Cl)cc(-c4cccc(C(=O)N(C)C)c4)nc3c2)CC1` [B102, Propyl 4-(4-chloro-2-(3-(dimethylcarbamoyl)phenyl)quinoline-7-carbonyl)piperazine-1-carboxylate], 530 nM; with `CCCOC(=O)N1CCN(C(=O)c2ccc3c(Cl)cc(-c4ccc(S(N)(=O)=O)cc4)nc3c2)CC1` [B103, Propyl 4-(4-chloro-2-(4-sulfamoylphenyl)quinoline-7-carbonyl)piperazine-1-carboxylate], 130 nM.
With `CCCOC(=O)N1CCN(C(=O)c2ccc3c(Cl)cc(-c4ccc(OC)c(CN(C)C)c4)nc3c2)CC1` [B104, Propyl 4-(4-chloro-2-(3-((dimethylamino)methyl)-4-methoxyphenyl)quinoline-7-carbonyl)piperazine-1-carboxylate] the figure was 120 nM.
Take `CCCOC(=O)N1CCN(C(=O)c2ccc3c(Cl)cc(-c4cccc(CN5CCOCC5)c4)nc3c2)CC1` [B105, Propyl 4-(4-chloro-2-(3-(morpholinomethyl)phenyl)quinoline-7-carbonyl)piperazine-1-carboxylate]: the IC50 is 860 nM.
With `CCCOC(=O)N1CCN(C(=O)c2ccc3c(Cl)cc(-c4ccc(OC)c(C#N)c4)nc3c2)C[C@H]1C` [B106, Propyl (R)-4-(4-chloro-2-(3-cyano-4-methoxyphenyl)quinoline-7-carbonyl)-2-methylpiperazine-1-carboxylate] the figure was 560 nM.
With `CCCOC(=O)N1CCN(C(=O)c2ccc3c(Cl)cc(-c4ccc(OC)c(CN)c4)nc3c2)C[C@H]1C` [B107, Propyl (R)-4-(2-(3-(aminomethyl)-4-methoxyphenyl)-4-chloroquinoline-7-carbonyl)-2-methylpiperazine-1-carboxylate] the figure was 76 nM; with `CCCOC(=O)N1CCN(C(=O)c2ccc3c(Cl)cc(-c4ccc(CN)c(C)c4)nc3c2)CC1` [B108, Propyl 4-(2-(4-(aminomethyl)-3-methylphenyl)-4-chloroquinoline-7-carbonyl)piperazine-1-carboxylate], 120 nM.
For the molecule `CCCOC(=O)N1CCN(C(=O)c2ccc3c(Cl)cc(C4(C)CC4)nc3c2)C[C@H]1C` [B109, Propyl (R)-4-(4-chloro-2-(1-methylcyclopropyl)quinoline-7-carbonyl)-2-methylpiperazine-1-carboxylate], the IC50 was determined as 380 nM.
For `CCCOC(=O)N1CCN(C(=O)c2ccc3c(Cl)cc(-c4ccc(CN(C)C)cc4)nc3c2)CC1` [B110, Propyl 4-(4-chloro-2-(4-((dimethylamino)methyl)phenyl)quinoline-7-carbonyl)piperazine-1-carboxylate], the IC50 was 160 nM.
With `CCCOC(=O)N1CCN(C(=O)c2ccc3c(Cl)cc(-c4cccc(CN(C)C)c4)nc3c2)C[C@H]1C` [B111, Propyl (R)-4-(4-chloro-2-(3-((dimethylamino)methyl)phenyl)quinoline-7-carbonyl)-2-methylpiperazine-1-carboxylate] the figure was 220 nM; with `CCCOC(=O)N1CCN(C(=O)c2ccc3c(Cl)cc(-c4cccc(CN(C)C)c4)nc3c2)CC1` [B112, Propyl 4-(4-chloro-2-(3-((dimethylamino)methyl)phenyl)quinoline-7-carbonyl)piperazine-1-carboxylate], 140 nM; with `CCCOC(=O)N1CCN(C(=O)c2ccc3c(Cl)c(C)c(-c4ccc(C(N)=O)cc4)nc3c2)C[C@H]1C` [B113, Propyl (R)-4-(2-(4-carbamoylphenyl)-4-chloro-3-methylquinoline-7-carbonyl)-2-methylpiperazine-1-carboxylate], 92 nM.
With `CCCOC(=O)N1CCN(C(=O)c2ccc3c(Cl)c(C)c(-c4ccc(C#N)cc4)nc3c2)C[C@H]1C` [B114, Propyl (R)-4-(4-chloro-2-(4-cyanophenyl)-3-methylquinoline-7-carbonyl)-2-methylpiperazine-1-carboxylate] the figure was 420 nM.
As for `CCCOC(=O)N1CCN(C(=O)c2ccc3c(Cl)cc(-c4ccnc(C)c4)nc3c2)CC1` [B115, Propyl 4-(4-chloro-2-(2-methylpyridin-4-yl)quinoline-7-carbonyl)piperazine-1-carboxylate], the IC50 was found to be 780 nM.
Regarding `CCCOC(=O)N1CCN(C(=O)c2ccc3c(Cl)cc(-c4ccc(S(=O)(=O)NC)cc4)nc3c2)CC1` [B116, Propyl 4-(4-chloro-2-(4-(N-methylsulfamoyl)phenyl)quinoline-7-carbonyl)piperazine-1-carboxylate], the IC50 came to 430 nM.
Then `CCCOC(=O)N1CCN(C(=O)c2ccc3c(Cl)cc(-c4cccc(S(N)(=O)=O)c4)nc3c2)CC1` [B117, Propyl 4-(4-chloro-2-(3-sulfamoylphenyl)quinoline-7-carbonyl)piperazine-1-carboxylate], with 920 nM.
Regarding `CCCOC(=O)N1CCN(C(=O)c2ccc3c(Cl)cc(-c4ccc(C(=O)NC)cc4)nc3c2)CC1` [B118, Propyl 4-(4-chloro-2-(4-(methylcarbamoyl)phenyl)quinoline-7-carbonyl)piperazine-1-carboxylate], the IC50 amounted to 250 nM.
For `CCCOC(=O)N1CCN(C(=O)c2ccc3c(Cl)cc(-c4ccc(CNC)cc4)nc3c2)C[C@H]1C` [B119, Propyl (R)-4-(4-chloro-2-(4-((methylamino)methyl)phenyl)quinoline-7-carbonyl)-2-methylpiperazine-1-carboxylate], the IC50 is 42 nM.
Consider `CCCOC(=O)N1CCN(C(=O)c2ccc3c(Cl)cc(-c4ccc(OC)c(CNC)c4)nc3c2)CC1` [B120, Propyl 4-(4-chloro-2-(4-methoxy-3-((methylamino)methyl)phenyl)quinoline-7-carbonyl)piperazine-1-carboxylate], for which the IC50 was 35 nM.
Then `CCCOC(=O)N1CCN(C(=O)c2ccc3c(Cl)cc(-c4ccc(NC(C)=O)cc4)nc3c2)C[C@H]1C` [B121, Propyl (R)-4-(2-(4-acetamidophenyl)-4-chloroquinoline-7-carbonyl)-2-methylpiperazine-1-carboxylate], with 55 nM; and `CCCOC(=O)N1CCN(C(=O)c2ccc3c(Cl)c(C)c(-c4ccc(CN)cc4)nc3c2)C[C@H]1C` [B122, Propyl (R)-4-(2-(4-(aminomethyl)phenyl)-4-chloro-3-methylquinoline-7-carbonyl)-2-methylpiperazine-1-carboxylate], with 70 nM; and `CCCOC(=O)N1CCN(C(=O)c2ccc3c(Cl)cc(-c4ccc5c(cnn5C)c4)nc3c2)CC1` [B123], with 150 nM.
With `CCCOC(=O)N1CCN(C(=O)c2ccc3c(Cl)cc(-c4cccc(CNC)c4)nc3c2)C[C@H]1C` [B124, Propyl (R)-4-(4-chloro-2-(3-((methylamino)methyl)phenyl)quinoline-7-carbonyl)-2-methylpiperazine-1-carboxylate] the figure was 60 nM; with `CCCOC(=O)N1CCN(C(=O)c2ccc3c(Cl)cc(C4CC4)nc3c2)CC1` [B125, Propyl 4-(4-chloro-2-cyclopropylquinoline-7-carbonyl)piperazine-1-carboxylate], 560 nM; with `CCCOC(=O)N1CCN(C(=O)c2ccc3c(Cl)cc(-c4ccc(CN(C)C)s4)nc3c2)CC1` [B126, Propyl 4-(4-chloro-2-(5-((dimethylamino)methyl)thiophen-2-yl)quinoline-7-carbonyl)piperazine-1-carboxylate], 89 nM.
`CCCOC(=O)N1CCN(C(=O)c2ccc3c(Cl)cc(-c4ccc5nn(C)cc5c4)nc3c2)CC1` [B127, Propyl 4-(4-chloro-2-(2-methyl-2H-indazol-5-yl)quinoline-7-carbonyl)piperazine-1-carboxylate]: the IC50 was determined as 21 nM.
With `CCCOC(=O)N1CCN(C(=O)c2ccc3c(Cl)cc(-c4ccc5[nH]ncc5c4)nc3c2)CC1` [B128, Propyl 4-(4-chloro-2-(1H-indazol-5-yl)quinoline-7-carbonyl)piperazine-1-carboxylate] the figure was 53 nM; with `CCCOC(=O)N1CCN(C(=O)c2ccc3c(Cl)cc(-c4ccc5cn[nH]c5c4)nc3c2)CC1` [B129, Propyl 4-(4-chloro-2-(1H-indazol-6-yl)quinoline-7-carbonyl)piperazine-1-carboxylate], 87 nM.

As usually defined, the IC50 is the midpoint of a concentration-inhibition curve.
